This assay concerns ZW658 strain. The assay can be described thus: Tube fermentation of ZW658 on glucose and xylose with various sugar alcohols (Example 14). The assay is classed as cell-based, Zymomonas mobilis. The protocol: Approximately 1 ml of well mixed sample was obtained from flask or fermentor. First the sample absorbance was measured directly with a spectrophotometer (Amersham Biosciences Ultrospec 3300pro, GE Healthcare, Piscataway, N.J., USA). If the reading was lower than 0.6 unit, no dilution was needed. If the reading was higher than 0.6 unit, the sample was diluted with culture medium until the actual reading was in the range of 0.1 to 0.6 unit. The original OD was calculated from the dilution ratio and the actual reading.
The analysis of sugars, acetate, ethanol, and other by-products was done with an Agilent 1100 series HPLC and Agilent ChemStation software for LC 3D. The column was BioRad Aminex HPX-87H(HPLC Organic Analysis Column 125-0140) with BioRad Micro-Guard Cartridge Cation-H (125-0129). The operating conditions were:
In six sterilized 50 ml screw-cap centrifuge tubes (Cat. No. 21008-178, VWR International, USA), 200 μl of ZW658 strain glycerol stock at OD600 of approximately 10 was inoculated into each flask with 25 ml of aqueous solution containing 92 g/L glucose, 82 g/L xylose, 10 g/L yeast extract (YE), 2 g/L KH2PO4, 1 g/L MgSO4.7H2O, and 10 mM of D-sorbitol, L-sorbitol, D-threitol, myo-inositol, or xylitol. The control had no addition of sugar alcohol. Initial pH was adjusted to 5.5 with 4 N H3PO4 solution. Fermentation was conducted at 33° C. and pH was not controlled. Samples were taken periodically between 0 and 48 hr. Samples were filtered through 0.22 micron filters, and the filtrates were analyzed by HPLC as described in General Methods for glucose, xylose, xylitol, and ethanol. Samples were diluted with medium (as described in General Methods) and the OD600 was measured to monitor cell growth. Results of growth and glucose utilization are given in FIGS. 22A and 22B, respectively. Results of xylose utilization and ethanol production are given in FIGS. 23A and 23B, respectively. Cultures with D-sorbitol or L-sorbitol grew faster and better than the control. After 48 hours, the OD600 were 6.2 and 5.2, respectively, for cultures supplemented with D-sorbitol or L-sorbitol; while the OD600 were less than 1 for other cultures. […] The presence of D-sorbitol or L-sorbitol allowed more xylose utilization, without production of xylitol.

Molecules are shown by their SMILES.

As to `OC[C@@H](O)[C@H](O)[C@@H](O)[C@@H](O)CO` [L-sorbitol], under “10 mM sugar alcohol vs control”, the ethanol production entry is recorded as “ethanol production was also better” and the xylose utilization result is listed as “More xylose was utilized”. Further, the OD600 (after 48 hours, 10 mM sugar alcohol, 92 g/L glucose, 82 g/L xylose) was 5.2.
